Reference: patent US20050251869A1, “Animal model for raising HDL-cholesterol with niacin” (priority 2004, published 2005)
Like-named read-outs stand apart in the source and are kept apart here.

Experiments:
[1] = test system: human-CETP/human-apoA1 dual-transgenic mice; settings: 1% niacin in diet, one week
From the text: In addition, hemizygous human-CETP/human-apolipoprotein A1 dual-transgenic mice were generated by cross-breeding homozygous human-CETP transgenic male mice, purchased from Taconic, with homozygous human-apolipoprotein A1 transgenic female mice, purchased from Jackson Laboratories.
Methods: Mice used in this study express both human CETP and human apolipoprotein A1 genes. The mice were generated by cross-breeding homozygous human-CETP transgenic male mice with homozygous female human-apolipoprotein A1-transgenic mice. Female mice (˜10 weeks of age, 10/group) were fed a normal rodent chow diet (Purina 7012) with or without 1% niacin (milled with the feed). They were housed with normal lighting and were allowed access to food and water ad lib. After seven days of treatment, the mice were fasted for four hours and then euthanized. Blood samples were collected by cardiac puncture. Serum lipids (total cholesterol, HDL-cholesterol, TG and FFA, and lipoprotein profiles) were determined.

[2] = test system: hemizygous human CETP-transgenic (hCETP-tg) mice; experiment: Example 1: four-week niacin-in-diet study, serum lipids, hCETP-tg mice; assay type: in vivo, mouse; settings: for change in HDL-C compared with untreated h-CETP-tg mice: 1% niacin in diet
From the text: (§1) Materials: The mice used in these studies were pathogen-free C57BI/6J mice of the following genotypes: (1) wild type; (2) hemizygous human CETP-transgenic (hCETP-tg); (3) hemizygous human apoB100-transgenic, and 4) hemizygous human CETP and apoB100 dual-transgenic mice. The transgenic mice were purchased from Taconic Laboratories, Germantown, N.Y., where they were generated by introduction of genomic DNA fragments that drive expression of human CETP and/or apoB100 in the mouse liver (8-10).
(§2) Methods: Male mice (hCETP-tg and wild type C57BI/6J control mice; ˜10 weeks of age; 5-7/group) were used in this study. The mice were fed a normal rodent chow diet (Purina 7012) along with varying levels of niacin (milled with diet, expressed as % by weight of diet). They were housed with normal lighting and were allowed access to food and water ad lib. Blood samples were obtained by retro-orbital plexus at one, two and three weeks of treatment. After the fourth week of treatment, the mice were fasted for four hours and then euthanized. After euthanization, blood samples were collected by cardiac puncture. Serum lipids (total cholesterol, HDL-cholesterol, TG and FFA, and lipoprotein profiles) were determined. Serum samples from four weeks of treatment were also measured for CETP enzyme activity.

[3] = test system: wild type C57BI/6J control mice; settings: for change in HDL-C compared with untreated WT mice: 1% niacin in diet
From the text: as §1, §2

[4] = test system: hemizygous human-CETP/ApoB100 dual transgenic mice
From the text: Methods: This example is a study of the lipid modulating effect of niacin in human CETP and Apo-B100 dual transgenic mice. These mice have a more human-like lipoprotein profile than WT mice, with a lower HDUnon-HDL-C ratio.
Mice (hemizygous human-CETP/ApoB100 dual transgenic mice, ˜10 weeks of age, 7-8/group) were fed a normal rodent chow diet (Purina 7012) along with varying levels of niacin (milled with the feed). They were housed with normal lighting and were allowed access to food and water ad lib. Blood samples were obtained by retro-orbital plexus after one week of treatment. After two weeks of treatment, the mice were fasted for four hours and then euthanized. Blood samples were collected by cardiac puncture. Serum lipids (total cholesterol, HDL-cholesterol, TG and FFA, and lipoprotein profiles) were determined.

[5] = test system: human ApoB 100 transgenic mice; settings: experiments similar to Examples 1 and 2
From the text: as §1

hCETP-tg mice = settings: for increase of HDL-C / reduction of TG: 1% niacin in diet
From the text: as §2
Blood samples were obtained by retro-orbital plexus after one week of treatment, as in Example 1. After two weeks of treatment, the mice were fasted for four hours and then euthanized. Blood samples were collected by cardiac puncture. Serum lipids (total cholesterol, HDL-cholesterol, total triglyceride and FFA) were determined.

[6] = hCETP-tg mice, niacin in diet, appears dose-dependent
[7] = lipoprotein profiles by size exclusion chromatography
[8] = one week of treatment with niacin in diet
[9] = size exclusion chromatography, after two weeks of treatment

`O=C(O)c1cccnc1` [niacin, nicotinic acid] was tested, and the “elevation of HDL-C” value ([1]; female mice) was about 38%, the “reduction of TG” value ([1]; female mice) was 53% and the “reduction of non-HDL-C” value ([1]; female mice) was 39%. The Non-HDL-C ([1]; male mice) was “did not change significantly”, the “elevation of HDL-C” value ([1]; male mice) was 27% and the “reduction of TG” value ([1]; male mice) was 36%. The “change in HDL-C compared with untreated h-CETP-tg mice” value ([2]; 1 week) was “+40%”, the “change in HDL-C compared with untreated h-CETP-tg mice” value ([2]; 2 weeks) was “+38%” and the “change in HDL-C compared with untreated h-CETP-tg mice” value ([2]; 3 weeks) was “+37%”. The “change in HDL-C compared with untreated h-CETP-tg mice” value ([2]; 4 weeks) was “+23%”, the FFA [2, 6] was “reduction” and the HDL-cholesterol [2, 6] was “increase”. For the same compound, the TG [2, 6] was “reduction”, the non-HDL cholesterol [2, 6] was “reduction” and the “TG in the VLDL fractions” value [2, 7] was “decline”. For the same compound, the “cholesterol in the HDL fractions” value [2, 7] was “rise”, the “change in HDL-C compared with untreated WT mice” value (“change … with untreated WT mice” below) ([3]; 1 week) was −9% and the “change … with untreated WT mice” value ([3]; 2 weeks) was −17%. For the same compound, the “change … with untreated WT mice” value ([3]; 3 weeks) was −13%, the “change … with untreated WT mice” value ([3]; 4 weeks) was −7% and the “serum lipids, including TG, total cholesterol, HDL-C, non-HDL-C, and FFA” value ([3]; wild-type control mice, niacin in diet) was “broad reduction”. For the same compound, the “increase in HDL-C” value ([4]; 0.1% niacin in diet, two weeks) was 41%, the “decrease in HDL-C” value ([4]; 0.3% niacin in diet, two weeks) was 5% and the “increase in HDL-C” value ([4]; 1% niacin in diet, two weeks) was 15%. For the same compound, the “TC and TG” value [4, 8] was “decrease”, the “amount of HDL-C” value [4, 8] was “without a significant change” and the “TG in the VLDL and LDL fractions” value [4, 9] was “decrease”. The “cholesterol in the HDL fractions” value [4, 9] was “increase”, the “cholesterol in the LDL fractions” value [4, 9] was “decrease” and the “level of HDL-C” value [5] was “does not raise”. The “increase of HDL-C” value (hCETP-tg mice; one week of treatment) was 35%, the “reduction of TG” value (hCETP-tg mice; one week of treatment) was 44% and the “increase of HDL-C” value (hCETP-tg mice; two weeks of treatment) was 37%. The “reduction of TG” value (hCETP-tg mice; two weeks of treatment) was 45%, the HDL particle size (hCETP-tg mice; [7]) was “without significant change” and the “TG contents of VLDL, LDL and HDL particles” value (hCETP-tg mice; [7]) was “all reduced”. For the same compound, the “cholesterol content in the HDL particles” value (hCETP-tg mice; [7]) was “increase” and the “cholesterol content of the LDL and VLDL particles” value (hCETP-tg mice; [7]) was “reduced”.
